Converted amounts (≈) assume the structure as drawn.
Key:
[1] = test system: Bacillus thuringiensis; assay: Antibacterial activity against Bacillus thuringiensis SCSIO BT01; assay type: functional
[2] = test system: Enterococcus faecalis; assay: Antibacterial activity against Enterococcus faecalis ATCC 29212; assay type: functional
[3] = test system: Staphylococcus aureus; assay: Antibacterial activity against Staphylococcus aureus ATCC 29213; assay type: functional
[4] = test system: Staphylococcus aureus; assay: Antibacterial activity against methicillin-resistant Staphylococcus aureus; assay type: functional
[5] = test system: Bacillus subtilis; assay: Antibacterial activity against Bacillus subtilis SCSIO BS01; assay type: functional
[6] = test system: Escherichia coli; assay: Antibacterial activity against Escherichia coli by broth dilution assay; assay type: functional
[7] = test system: Bacillus subtilis; assay: Antibacterial activity against Bacillus subtilis by broth dilution assay; assay type: functional
[8] = test system: Escherichia coli; assay: Antibacterial activity against Escherichia coli by serial dilution assay; assay type: functional
[9] = test system: Bacillus subtilis; assay: Antibacterial activity against Bacillus subtilis by serial dilution assay; assay type: functional
[10] = test system: Proteus vulgaris; assay: Antibacterial activity against Proteus vulgaris by serial dilution assay; assay type: functional
[11] = test system: Micrococcus luteus; assay: Antibacterial activity against Micrococcus luteus by serial dilution assay; assay type: functional
[12] = test system: Staphylococcus aureus; assay: Antibacterial activity against Staphylococcus aureus by broth dilution assay; assay type: functional
[13] = test system: Staphylococcus aureus; assay: Antibacterial activity against Staphylococcus aureus incubated for 18 hrs; assay type: functional
[14] = test system: Salmonella typhi; assay: Antibacterial activity against Salmonella typhi by broth dilution assay; assay type: functional, Salmonella enterica subsp. enterica serovar Typhi; conditions: Salmonella enterica
[15] = test system: Pseudomonas aeruginosa; assay: Antibacterial activity against Pseudomonas aeruginosa by broth dilution assay; assay type: functional

`Cc1cc(=O)[nH]c2c1C(=O)c1c(C)cc(=O)n(C)c1C2=O` showed an MIC [1] of 1 to 4 µg/mL (≈ 3.52 to 14.1 µM), an MIC [2] of 1 to 4 µg/mL (≈ 3.52 to 14.1 µM) and an MIC [3] of 1 to 4 µg/mL (≈ 3.52 to 14.1 µM).

In the case of `CO[C@@H]1[C@@H](OC(N)=O)[C@@H](O)[C@H](Oc2ccc3c(O)c(NC(=O)c4ccc(O)c(CC=C(C)C)c4)c(=O)oc3c2C)OC1(C)C` [NOVOBIOCIN], the MIC [4] is reported as 0.25 µg/mL (≈ 0.408 µM).

`CC1(C)OC2=C(C[C@H]1Cl)C(=O)c1c(O)cc(O)cc1C2=O` showed an MIC [1] of 4 to 32 µg/mL (≈ 13 to 104 µM), an MIC [5] of 4 to 32 µg/mL (≈ 13 to 104 µM) and an MIC [3] of 4 to 32 µg/mL (≈ 13 to 104 µM).

Work on `C[C@@H](O)CCC/C=C/C=C/[C@H](O)C[C@@H](O)C/C=C\C=C\C(=O)O` yielded an MIC [6] of no less than 16 µg/mL and an MIC [7] of no less than 16 µg/mL.

For `C[C@@H]1CCC[C@@H](O)/C=C/[C@@H]2O[C@@H]2C[C@@H](O)C/C=C\C=C\[C@@H](O)C/C=C/C=C\C(=O)O1`, the MIC [6] was 16 µg/mL (≈ 38.2 µM) and the MIC [7] was 16 µg/mL (≈ 38.2 µM).

`O=C1NC(=O)C(c2ccc(O)c([N+](=O)[O-])c2)=C1c1ccccc1` was tested, and the MIC [8] was 25 to 100 µg/mL (≈ 80.6 to 322 µM), the MIC [9] was 25 to 100 µg/mL (≈ 80.6 to 322 µM) and the MIC [10] was 25 to 100 µg/mL (≈ 80.6 to 322 µM). For the same compound, the MIC [11] was 25 to 100 µg/mL (≈ 80.6 to 322 µM).

For `CC(=O)[C@H]1[C@@H]2C=C[C@@H]3[C@H]4C/C=C\C(=O)NCCC[C@H]5C(O)=C(C(=O)/C=C/[C@@H]4C[C@@H]3[C@H]2C[C@H]1C)C(=O)N5C`, the MIC [4] was 32 to 64 µg/mL (≈ 63.2 to 126 µM).

`COC(=O)C[C@H](O)C[C@@H](O)C[C@H](O)/C=C/C=C/CCC[C@@H](C)O` was tested, and the MIC [6] was no less than 16 µg/mL and the MIC [7] was no less than 16 µg/mL.

`C[C@@H]1CCC/C=C/C=C/[C@H](O)C[C@@H](O)[C@H](O)/C=C\C=C\[C@H](O)C/C=C/C=C\C(=O)O1` showed an MIC [12] of 0.1 µg/mL (≈ 0.239 µM), an MIC [6] of 0.1 µg/mL (≈ 0.239 µM) and an MIC [7] of 0.1 µg/mL (≈ 0.239 µM).

`O=C1N/C(=N\O)C(c2ccc(O)c([N+](=O)[O-])c2)=C1c1ccccc1` was tested, and the MIC [8] was 3 to 25 µg/mL (≈ 9.22 to 76.9 µM), the MIC [9] was 3 to 25 µg/mL (≈ 9.22 to 76.9 µM) and the MIC [10] was 3 to 25 µg/mL (≈ 9.22 to 76.9 µM). For the same compound, the MIC [11] was 3 to 25 µg/mL (≈ 9.22 to 76.9 µM).

`COC(=O)CCC(=O)O[C@@H]1/C=C/C=C\C[C@H](O)C[C@@H](O)/C=C/C=C/CCC[C@@H](C)OC(=O)/C=C\C=C\C1` gave an MIC [6] of no less than 16 µg/mL and an MIC [7] of no less than 16 µg/mL.

With `O=C1NC(=O)C(c2ccc(O)cc2)=C1c1ccccc1` the MIC [8] was 25 to 100 µg/mL (≈ 94.2 to 377 µM), the MIC [9] was 25 to 100 µg/mL (≈ 94.2 to 377 µM) and the MIC [10] was 25 to 100 µg/mL (≈ 94.2 to 377 µM). It also gave an MIC [11] of 25 to 100 µg/mL (≈ 94.2 to 377 µM).

`CO[C@@H]1[C@@H](OC(N)=O)[C@@H](O)[C@H](Oc2ccc3c(O)c(NC(=O)c4cc(O)c(O)c(CC=C(C)C)c4)c(=O)oc3c2C)OC1(C)C` gave an MIC [4] of 8 to 16 µg/mL (≈ 12.7 to 25.5 µM).

With `O=C1N/C(=N\O)C(c2ccccc2)=C1c1ccc(O)c([N+](=O)[O-])c1` the MIC [8] was 3 to 25 µg/mL (≈ 9.22 to 76.9 µM), the MIC [9] was 3 to 25 µg/mL (≈ 9.22 to 76.9 µM) and the MIC [10] was 3 to 25 µg/mL (≈ 9.22 to 76.9 µM). The MIC [11] was 3 to 25 µg/mL (≈ 9.22 to 76.9 µM).

With `O=C1N/C(=N\O)C(c2ccc(O)c([N+](=O)[O-])c2)=C1c1ccc(O)c([N+](=O)[O-])c1` the MIC [8] was 3 to 25 µg/mL (≈ 7.77 to 64.7 µM), the MIC [9] was 3 to 25 µg/mL (≈ 7.77 to 64.7 µM) and the MIC [10] was 3 to 25 µg/mL (≈ 7.77 to 64.7 µM). For the same compound, the MIC [11] was 3 to 25 µg/mL (≈ 7.77 to 64.7 µM).

For `COC(=O)N[C@H]1[C@@H](C)O[C@@H](O[C@H]2C/C=C(\C)[C@@H]3C=C[C@@H]4[C@@H](O[C@H]5C[C@@H](O[C@H]6C[C@@H](O)[C@@H](O)[C@H](C)O6)[C@@H](O)[C@H](C)O5)[C@@H](C)C[C@H](C)[C@H]4[C@]3(C)C(=O)C3=C(O)[C@@]4(C[C@@H](C)C(C)=C[C@H]4/C=C/2C)OC3=O)C[C@]1(C)[N+](=O)[O-]`, the MIC [3] was 6.2 to 50 µg/mL (≈ 6.04 to 48.7 µM).

Work on `O=C1NC(=O)C(c2c[nH]c3ccccc23)=C1c1ccc(O)c([N+](=O)[O-])c1` yielded an MIC [8] of 3 to 25 µg/mL (≈ 8.59 to 71.6 µM), an MIC [9] of 3 to 25 µg/mL (≈ 8.59 to 71.6 µM) and an MIC [10] of 3 to 25 µg/mL (≈ 8.59 to 71.6 µM). For the same compound, the MIC [11] was 3 to 25 µg/mL (≈ 8.59 to 71.6 µM).

`C[C@@H]1O[C@](C)(C(=O)O)O[C@H]1/C=C/C=C/C=C/C(=O)O[C@H]1CC[C@H](c2ccc3c(c2O)C(=O)c2ccc4c(c2C3=O)C(=O)[C@H](O)[C@](C)(O)C4)O[C@@H]1C` gave an MIC [13] of 2 to 6 µg/mL (≈ 2.85 to 8.54 µM).

In the case of `CC(C)=CCC/C(C)=C/C[C@@]12OC(C)(C)[C@H](Cl)C[C@]1(Cl)C(=O)c1c(O)cc(O)cc1C2=O`, the MIC [1] is reported as no more than 2 µg/mL, the MIC [5] is reported as no more than 2 µg/mL and the MIC [3] is reported as no more than 2 µg/mL.

With `CC(C)=CCC/C(C)=C/C[C@@]12OC(C)(C)[C@H](Cl)C=C1C(=O)c1c(O)cc(O)cc1C2=O` the MIC [1] was 4 to 32 µg/mL (≈ 8.99 to 71.9 µM), the MIC [5] was 4 to 32 µg/mL (≈ 8.99 to 71.9 µM) and the MIC [3] was 4 to 32 µg/mL (≈ 8.99 to 71.9 µM).

Work on `CC[C@]1(O)C[C@@]2(O)c3c(c(C)cc(=O)n3C)C(=O)c3c(C)cc(=O)n1c32` yielded an MIC [1] of 1 to 4 µg/mL (≈ 2.81 to 11.2 µM), an MIC [2] of 1 to 4 µg/mL (≈ 2.81 to 11.2 µM) and an MIC [3] of 1 to 4 µg/mL (≈ 2.81 to 11.2 µM).

Compound `C[C@@H]1CCCCC/C=C/[C@H](O)C[C@@H](O)C/C=C\C=C\[C@@H](O[C@@H]2O[C@H](CO)[C@@H](O)[C@H](O)[C@H]2O)C/C=C/C=C\C(=O)O1` has an MIC [12] of 0.06 µg/mL (≈ 0.106 µM), an MIC [14] of 0.03 µg/mL (≈ 0.0529 µM) and an MIC [15] of 0.03 µg/mL (≈ 0.0529 µM). It also gave an MIC [6] of 0.06 µg/mL (≈ 0.106 µM) and an MIC [7] of 0.06 µg/mL (≈ 0.106 µM).

In the case of `CC[C@H]1[C@@H]2C=C[C@@H]3[C@H]4/C=C/CC(=O)NCCC[C@H]5C(O)=C(C(=O)/C=C/[C@@H]4C[C@@H]3[C@H]2C[C@H]1C)C(=O)N5C`, the MIC [4] is reported as 1 to 4 µg/mL (≈ 2.03 to 8.12 µM).

From ChEMBL document CHEMBL4270488, “Antibacterial Compounds from Marine Bacteria, 2010-2015” (J Nat Prod, 2017)
